Measurements taken from US20250353867A1, “Substituted Pyridine-2,6-Bis(Phenylenephenolate) Complexes with Enhanced Solubility that are Useful as Catalyst Components for Olefin Polymerization” (EXXONMOBIL CHEMICAL PATENTS INC., priority 2022, published 2025).
Values joined by “and” are separate entries in the source; they are usually repeats but may differ in a detail not shown here. Equal values may be shown once.

Columns and labels:
[1] = Propylene polymerization, catalyst activity
Text: Solutions of the pre-catalysts were made using toluene (ExxonMobil Chemical-anhydrous, stored under N2) (98%) or isohexane (ExxonMobil Chemical—polymerization grade, and purified as described below). Pre-catalyst solutions were typically 0.25 mmol/L.
Activation of the pre-catalysts was either by dimethylanilinium tetrakisperfluorophenylborate (Boulder Scientific or Albemarle Corp; Act ID=A) or (hydrogenated tallow alkyl)methylammonium tetrakis(pentafluorophenyl)borate supplied as a 10 wt % solution in methylcyclohexane (Boulder Scientific; Act ID=B). Activators were typically used as a 0.25 mmol/L solution in toluene or isohexane.
Tri-n-octylaluminum (TnOAl or TNOA, Neat, AkzoNobel) was also used as a scavenger prior to introduction of the activator and pre-catalyst into the reactor. TNOA was typically used as a 5 mmol/L solution in toluene or isohexane.
Polymerizations were conducted in an inert atmosphere (N2) drybox using autoclaves equipped with an external heater for temperature control, glass inserts (internal volume of 22.5 mL), septum inlets, regulated supply of nitrogen and propylene, and equipped with disposable PEEK mechanical stirrers (800 RPM). The autoclaves were prepared by purging with dry nitrogen at 110° C. or 115° C. for 5 hours and then at 25° C. for 5 hours.
The reactor was prepared as described above, then heated to 40° C., and then purged with propylene gas at atmospheric pressure. Toluene or isohexanes, liquid propylene (1.0 mL) and scavenger (TNOA, 0.5 μmol) were added via syringe. The reactor was then brought to process temperature (70° C. or 100° C.) while stirring at 800 RPM. The activator solution, followed by the pre-catalyst solution, were injected via syringe to the reactor at process conditions. Reactor temperature was monitored and typically maintained within +/−1° C. Polymerizations were halted by addition of approximately 50 psi compressed dry air gas mixture to the autoclaves for approximately 30 seconds. The polymerizations were quenched based on a predetermined pressure loss (maximum quench value) or for a maximum of 30 minutes. The reactors were cooled and vented. The polymers were isolated after the solvent was removed in-vacuo. The actual quench time (s) is reported as quench time (s). Yields reported include total weight of polymer and residual catalyst. […] Propylene homopolymerization examples are reported in Table 2 with additional characterization in Table 3.
Polymerization results are collected in Tables 2. “Ex #” stands for example number. Example numbers starting with a “C” are comparative examples. “Cat ID” identifies the pre-catalyst used in the experiment. Corresponding numbers identifying the pre-catalyst (also referred to as pre-catalyst, catalyst, complex or compound) are located in the synthetic experimental section. T (° C.) is the polymerization temperature which was typically maintained within +/−1° C. “Yield” is polymer yield, and is not corrected for catalyst residue. “Quench time (s)” is the actual duration of the polymerization run in seconds. For propylene homopolymerization runs, quench value indicates the maximum set pressure loss (conversion) of propylene during the polymerization. Activity is reported at grams polymer per mmol of catalyst per hour.
Activator A is N,N-dimethylanilinium tetrakis(pentafluorophenyl)borate activator and activator B is (hydrogenated tallow alkyl)methylammonium tetrakis(pentafluorophenyl)borate. When activator A was used, both the pre-catalyst and activator solutions were in toluene. When activator B was used, both pre-catalyst and activator solutions were in isohexane. Small amounts of methylcyclohexane (MCH) result from activator B being supplied by the manufacturer as a 10 wt % solution in methylcyclohexane.

[2] = Solubility of complexes in isohexane at room temperature; assay type: physicochemical; details: room temperature (20° C.-25° C.); for Solubility in isohexane: cocrystallized solvent included in formula weight; for Solubility in isohexane (wt %): cocrystallized solvent included in mass
Procedure: General considerations: Solubility studies were performed using complexes that were isolated as crystalline or microcrystalline solids. […] Complex 3, embodying the present technological advancement, was cocrystallized with 0.6 equivalents of isohexane. Complex 4, embodying the present technological advancement, was cocrystallized with 0.5 equivalents of isohexane. Solvents used were sparged with nitrogen (30-60 minutes) and dried over 3 angstrom molecular sieves. Unless stated otherwise all measurements were performed at ambient temperature (20° C.-25° C.).
General procedure: A tared vial was loaded with a small amount of the complex (actual mass recorded, typically 5-30 mg). Then a small stir bar (8 mm) was added. Solvent was then added and the mixture was stirred rapidly (1000 rpm). […] This process was repeated until either a clear solution was obtained (no visible solids or murkiness) or the vial was full. As the mixture approached homogeneity (i.e., few remaining solids observed) the volume of the solvent additions was kept small (<1 mL) to minimize the overshooting of the solvent required to achieve homogeneity. The stir bar was then removed and the mass of the mixture was measured. If a clear solution had formed then the solubility of the complex was calculated based on the mass of complex and the amount of solvent added to achieve a homogeneous solution. If the mixture remained heterogeneous (visible solids or murky), then the value reported is given as being “less than” the calculated value. Formulas used to calculate solubility are listed below. Cocrystallized solvent is included in the mass and formula weights of the complexes. The density of isohexane used in the calculations was 0.672 g/ml, and the density of the complex was assumed to be 1.0 g/ml.
Solubility (in wt %)=[100]*[(weight of complex)/(weight of solution)]
Solubility (in mM)=[10^6]*[(grams of complex)/(formula wt. of complex in g/mol)]/[(grams of solvent)/(density of solvent in g/mL)]

[3] = Activator B ((hydrogenated tallow alkyl)methylammonium tetrakis(pentafluorophenyl)borate), T 70 °C, solutions in isohexane, no toluene
[4] = Activator B ((hydrogenated tallow alkyl)methylammonium tetrakis(pentafluorophenyl)borate), T 100 °C, solutions in isohexane, no toluene

| Molecule | Activity (g P/mmol cat · hr) [1, 3] | Activity (g P/mmol cat · hr) ([1]; Activator A (N,N-dimethylanilinium tetrakis(pentafluorophenyl)borate), T 100 °C, catalyst and activator solutions in toluene) | Activity (g P/mmol cat · hr) [1, 4] | Solubility in isohexane [2] [mM] | Solubility in isohexane (wt %) [2] [wt %] |
| --- | --- | --- | --- | --- | --- |
| CCCCCCCCCCCCOc1ccc2c(c1)-c1cc(C(C)(C)C)cc(C34CC5CC(CC(C5)C3)C4)c1[O][Zr]([CH3])([CH3])[O]c1c(cc(C(C)(C)C)cc1C13CC4CC(CC(C4)C1)C3)-c1cc(OCCCCCCCCCCCC)ccc1-c1cccc-2n1 [Complex 6] | 1,713,412 g P/mmol cat · hr and 1,940,093 g P/mmol cat · hr and 1,864,216 g P/mmol cat · hr |  |  |  |  |
| CCCCCCCCOc1ccc2c(c1)-c1cc(C(C)(C)C)cc(C34CC5CC(CC(C5)C3)C4)c1[O][Zr]([CH3])([CH3])[O]c1c(cc(C(C)(C)C)cc1C13CC4CC(CC(C4)C1)C3)-c1cc(OCCCCCCCC)ccc1-c1cccc-2n1 [Complex 5] | 6,656,571 g P/mmol cat · hr and 5,844,800 g P/mmol cat · hr and 5,664,000 g P/mmol cat · hr | 3,376,421 g P/mmol cat · hr and 2,318,545 g P/mmol cat · hr and 2,591,040 g P/mmol cat · hr | 2,700,444 g P/mmol cat · hr and 1,772,923 g P/mmol cat · hr and 2,571,840 g P/mmol cat · hr |  |  |
| CCCCOc1ccc2c(c1)-c1cc(C)cc(C34CC5CC(CC(C5)C3)C4)c1[O][Zr]([CH3])([CH3])[O]c1c(cc(C)cc1C13CC4CC(CC(C4)C1)C3)-c1cc(OCCCC)ccc1-c1cccc-2n1 [Complex 3] |  |  |  | 1.10 | 0.168 |
| CCCCOc1ccc2c(c1)-c1cc(C(C)(C)C)cc(C34CC5CC(CC(C5)C3)C4)c1[O][Zr]([CH3])([CH3])[O]c1c(cc(C(C)(C)C)cc1C13CC4CC(CC(C4)C1)C3)-c1cc(OCCCC)ccc1-c1cccc-2n1 [Complex 4] |  |  | 2,448,000 g P/mmol cat · hr and 2,638,800 g P/mmol cat · hr and 1,007,059 g P/mmol cat · hr | 15.7 | 2.55 |
| dimethylzirconium[2′,2′″-(pyridine-2,6-diyl)bis(3-adamantan-1-yl)-5-(tert-butyl)-[1,1′-biphenyl]-2-olate)] [Complex 2, reference compound] | 2,069,268 g P/mmol cat · hr and 4,201,200 g P/mmol cat · hr and 3,074,182 g P/mmol cat · hr |  | 2,345,000 g P/mmol cat · hr and 2,682,545 g P/mmol cat · hr and 2,225,032 g P/mmol cat · hr |  |  |
